Laboratory results: ChEMBL document CHEMBL1201862, “PubChem BioAssay data set” (2004)
Activity calls are given as the source filed them.

Legend:
Cytochrome P450 2C19 = Cytochrome P450 2C19 (Homo sapiens, UniProt P33261); assay: Cytochrome panel assay with activity outcomes. Panel member name: p450-cyp2c19 Compounds with AC50 equal or less than 10 uM are considered active; type: functional
Cytochrome P450 2D6 = Cytochrome P450 2D6 (Homo sapiens, UniProt P10635);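 note: CYP2D6 member of a cytochrome P450 panel assay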
Sequence of Cytochrome P450 2D6 (P10635 whole entry): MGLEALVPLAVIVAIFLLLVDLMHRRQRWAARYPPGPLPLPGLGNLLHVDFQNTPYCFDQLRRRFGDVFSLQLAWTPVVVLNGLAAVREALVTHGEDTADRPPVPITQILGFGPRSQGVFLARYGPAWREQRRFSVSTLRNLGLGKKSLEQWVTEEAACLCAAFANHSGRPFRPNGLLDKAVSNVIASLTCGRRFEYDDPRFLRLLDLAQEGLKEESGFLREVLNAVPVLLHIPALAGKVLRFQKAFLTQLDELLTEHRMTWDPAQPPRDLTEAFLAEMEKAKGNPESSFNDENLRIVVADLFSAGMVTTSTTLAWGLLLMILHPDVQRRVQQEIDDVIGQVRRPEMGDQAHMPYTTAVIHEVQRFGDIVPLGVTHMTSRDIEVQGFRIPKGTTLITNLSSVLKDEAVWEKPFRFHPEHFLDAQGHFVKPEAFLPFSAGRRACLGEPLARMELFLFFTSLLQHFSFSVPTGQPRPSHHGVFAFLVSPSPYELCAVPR

[1] = A cytotoxicity screen of small molecule inhibitors of the PhoP region in Salmonella typhi identified in the primary screen. [Related pubchem assays: 1850, 1864, 1985 ]; type: functional
[2] = molecular target: T1, Microphthalmia-associated transcription factor (Homo sapiens, UniProt O75030); assay: reducers of TRPM1 reporter luminescence, concentration series – cell-based, SK-MEL-5, cherry-picked, set 3, MITF inhibitor project, dose response (AID 493073); type: functional;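 note: SK-MEL-5 melanoma cells with luciferase driven by the MITF target TRPM1 promoter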
T1 sequence (O75030 whole entry): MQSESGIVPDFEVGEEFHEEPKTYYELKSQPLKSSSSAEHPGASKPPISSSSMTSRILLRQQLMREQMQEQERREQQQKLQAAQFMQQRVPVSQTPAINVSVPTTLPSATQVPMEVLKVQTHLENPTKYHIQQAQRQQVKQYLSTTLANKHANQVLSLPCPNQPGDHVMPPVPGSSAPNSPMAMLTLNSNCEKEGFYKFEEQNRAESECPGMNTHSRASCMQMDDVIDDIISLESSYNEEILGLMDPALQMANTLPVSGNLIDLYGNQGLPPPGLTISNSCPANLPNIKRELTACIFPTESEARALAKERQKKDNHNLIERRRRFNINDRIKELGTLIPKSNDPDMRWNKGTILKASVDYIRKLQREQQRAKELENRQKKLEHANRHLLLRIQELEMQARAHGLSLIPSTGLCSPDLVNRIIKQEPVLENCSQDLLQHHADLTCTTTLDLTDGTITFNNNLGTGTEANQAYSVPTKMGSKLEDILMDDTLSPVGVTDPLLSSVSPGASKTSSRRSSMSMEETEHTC

[3] = luciferase reporter signal suppression in cells – H4 neuroglioma cells, luminescence, dose response (AID 1990); type: functional, cell-based
[4] = Luminescence Cell-Based Dose Response HTS to Identify Inhibitors of 5'UTR Stem-Loop Driven Prion Protein mRNA Translation in H4 Neuroglioblastoma Cells. [Related pubchem assays: 1827 (Project Summary), 1813 (Primary HTS)]; type: functional
[5] = alpha-synuclein stem-loop luciferase translation blockers – H4 neuroglioma cells, luminescence, confirmation (AID 1988); type: functional, cell-based
[6] = HEK-293T cell viability reduction – luminescence, B-cell screen hits, cytotoxicity control for BCR NF-kB inhibitor project, dose response (AID 489021); type: functional, cell-based;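 note: HEK-293T cells carrying an NF-kB luciferase reporter; cells exposed to compound for about 14 hours before viability readout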
[7] = molecular target: DNA dC->dU-editing enzyme APOBEC-3G (Homo sapiens, UniProt Q9HC16); assay: Dose Response confirmation of small molecule APOBEC3G DNA Deaminase Inhibitors via a fluorescence-based single-stranded DNA deaminase assay. [Related pubchem assays (depositor defined):AID493012, AID493028]; type: functional
Sequence of DNA dC->dU-editing enzyme APOBEC-3G (Q9HC16 whole entry): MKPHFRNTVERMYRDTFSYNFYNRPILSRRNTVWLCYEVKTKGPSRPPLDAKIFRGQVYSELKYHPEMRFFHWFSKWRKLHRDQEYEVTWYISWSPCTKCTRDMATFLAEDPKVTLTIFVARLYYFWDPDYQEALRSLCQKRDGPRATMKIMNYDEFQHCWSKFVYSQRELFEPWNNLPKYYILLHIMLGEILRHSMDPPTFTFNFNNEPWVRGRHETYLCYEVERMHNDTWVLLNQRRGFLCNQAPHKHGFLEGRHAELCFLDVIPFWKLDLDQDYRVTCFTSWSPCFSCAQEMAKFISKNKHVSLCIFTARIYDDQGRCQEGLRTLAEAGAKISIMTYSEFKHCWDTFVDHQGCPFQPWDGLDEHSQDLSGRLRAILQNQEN

Ephrin type-A receptor 4 = Ephrin type-A receptor 4 (Mus musculus, UniProt Q03137); assay: EphA4 ligand-binding antagonists – biochemical, colorimetric, mouse EphA4, primary screen (AID 689); type: functional
Sequence of Ephrin type-A receptor 4 (Q03137 whole entry, the tested form may be a part): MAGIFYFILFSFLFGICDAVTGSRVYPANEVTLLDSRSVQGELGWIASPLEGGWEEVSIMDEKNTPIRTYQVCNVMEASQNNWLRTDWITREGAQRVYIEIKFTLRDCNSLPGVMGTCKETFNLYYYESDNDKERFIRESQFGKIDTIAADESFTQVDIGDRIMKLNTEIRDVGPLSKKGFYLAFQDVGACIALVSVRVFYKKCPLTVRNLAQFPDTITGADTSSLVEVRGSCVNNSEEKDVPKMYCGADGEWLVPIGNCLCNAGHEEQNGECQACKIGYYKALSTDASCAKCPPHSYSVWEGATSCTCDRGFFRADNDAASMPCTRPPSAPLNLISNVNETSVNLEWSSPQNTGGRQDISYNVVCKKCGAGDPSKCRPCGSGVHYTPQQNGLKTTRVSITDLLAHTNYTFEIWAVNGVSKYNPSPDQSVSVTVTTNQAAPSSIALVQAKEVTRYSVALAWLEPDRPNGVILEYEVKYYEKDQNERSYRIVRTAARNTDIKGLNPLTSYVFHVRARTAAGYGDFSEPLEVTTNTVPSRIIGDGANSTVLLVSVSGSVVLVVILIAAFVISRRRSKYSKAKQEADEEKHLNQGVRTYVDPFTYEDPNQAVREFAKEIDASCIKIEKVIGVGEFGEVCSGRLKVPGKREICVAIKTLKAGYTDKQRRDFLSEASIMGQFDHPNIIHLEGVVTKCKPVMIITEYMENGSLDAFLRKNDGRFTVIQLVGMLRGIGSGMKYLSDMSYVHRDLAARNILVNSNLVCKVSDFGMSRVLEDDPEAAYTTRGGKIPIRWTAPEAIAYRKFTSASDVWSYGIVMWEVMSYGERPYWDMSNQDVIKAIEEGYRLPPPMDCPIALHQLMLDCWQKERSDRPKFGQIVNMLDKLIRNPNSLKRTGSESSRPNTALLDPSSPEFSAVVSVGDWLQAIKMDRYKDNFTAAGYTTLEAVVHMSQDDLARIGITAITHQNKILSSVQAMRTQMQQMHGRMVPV

CHO = CHO cell viability loss, potency – luminescence, cytotoxicity control for TLR9-MyD88 binding inhibitor project, dose response (AID 588339); type: functional, cell-based, hamster; settings: Cricetulus griseus;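 note: CHO cells stably coexpressing TLR9 and MyD88 fusions from primary screen; compound exposure lasted 48 hours before viability readout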
[8] = molecular target: T2, Corticotropin-releasing factor receptor 2/Corticotropin-releasing factor-binding protein (Homo sapiens, UniProt P24387+Q13324); assay: activators of CRF receptor 2 with binding protein – uHTS hits, confirmation (AID 602473); type: functional; settings: read-out: EC50_Mean
T2 sequence (Q13324 whole entry): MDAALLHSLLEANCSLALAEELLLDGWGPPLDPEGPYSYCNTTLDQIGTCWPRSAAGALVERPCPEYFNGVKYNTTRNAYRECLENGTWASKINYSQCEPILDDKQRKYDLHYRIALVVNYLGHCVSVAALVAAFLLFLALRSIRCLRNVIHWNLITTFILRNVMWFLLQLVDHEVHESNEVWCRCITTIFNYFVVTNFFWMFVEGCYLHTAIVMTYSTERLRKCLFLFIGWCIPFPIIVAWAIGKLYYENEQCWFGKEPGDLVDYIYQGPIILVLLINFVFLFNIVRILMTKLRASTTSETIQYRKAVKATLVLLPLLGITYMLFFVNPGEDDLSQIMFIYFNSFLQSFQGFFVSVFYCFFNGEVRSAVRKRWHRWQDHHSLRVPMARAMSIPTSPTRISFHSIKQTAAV
T2 sequence (P24387 whole entry): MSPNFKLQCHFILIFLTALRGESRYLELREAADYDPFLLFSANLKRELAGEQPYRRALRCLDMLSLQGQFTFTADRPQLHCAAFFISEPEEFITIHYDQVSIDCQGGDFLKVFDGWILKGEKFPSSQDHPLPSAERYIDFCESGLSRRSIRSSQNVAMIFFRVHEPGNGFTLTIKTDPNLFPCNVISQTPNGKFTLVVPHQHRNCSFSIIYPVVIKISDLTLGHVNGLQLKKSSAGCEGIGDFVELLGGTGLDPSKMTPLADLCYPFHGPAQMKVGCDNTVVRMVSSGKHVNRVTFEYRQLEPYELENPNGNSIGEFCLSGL

[9] = molecular target: T3, Mannose-6-phosphate isomerase (Homo sapiens, UniProt P34949); assay: MPI inhibition at elevated mannose 6-phosphate – biochemical, fluorescence intensity, high mannose 6-phosphate, primary screen (AID 1220)
T3 sequence (P34949 whole entry): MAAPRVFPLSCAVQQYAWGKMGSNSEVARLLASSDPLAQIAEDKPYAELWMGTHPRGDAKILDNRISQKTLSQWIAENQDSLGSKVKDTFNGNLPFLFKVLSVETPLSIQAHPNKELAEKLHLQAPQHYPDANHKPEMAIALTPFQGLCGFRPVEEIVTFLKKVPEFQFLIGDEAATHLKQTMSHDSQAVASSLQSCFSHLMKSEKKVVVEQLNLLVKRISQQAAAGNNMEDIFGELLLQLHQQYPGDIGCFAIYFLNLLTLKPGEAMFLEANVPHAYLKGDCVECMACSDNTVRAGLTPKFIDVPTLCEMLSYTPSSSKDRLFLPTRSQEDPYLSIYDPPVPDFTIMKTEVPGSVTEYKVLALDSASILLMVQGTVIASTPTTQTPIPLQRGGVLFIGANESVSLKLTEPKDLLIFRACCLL

[10] = NIH-3T3 fibroblast cytotoxicity, dose response, cytotoxicity control, cell-based, fluorescence, Alamar Blue, secondary assay (AID 2327); type: functional;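 note: NIH-3T3 mouse fibroblasts cultured with fluconazole at 8 µg/mL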
BJ [11] = assay: BJ-TERT fibroblast viability loss – cell-based, RAS-independent, luminescence, dose response (AID 1933); type: functional; settings: Homo sapiens
BJ [12] = assay: cells; type: functional, cell-based; settings: Homo sapiens
[13] = fluconazole-exposed Candida albicans growth modulators – fluorescence, retest, confirmation (AID 2467); type: functional, cell-based
[14] = molecular target: T4, Serine/threonine-protein phosphatase (Candida dubliniensis (strain CD36 / CBS 7987 / NCPF 3949 / NRRLY-17841) (Yeast), UniProt B9W6M3); assay: blockers of CaCl2-induced CDRE-lacZ signaling – S. cerevisiae, luminescence, secondary, dose response (AID 2388); type: functional, cell-based;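 note: yeast reporter cells carrying a calcineurin-responsive lacZ construct stimulated with calcium chloride; luminescent beta-galactosidase reporter signal in whole cells rather than isolated phosphatase activity; potency for inhibition where a drop in reporter signal means calcineurin blockade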
T4 sequence (B9W6M3 whole entry): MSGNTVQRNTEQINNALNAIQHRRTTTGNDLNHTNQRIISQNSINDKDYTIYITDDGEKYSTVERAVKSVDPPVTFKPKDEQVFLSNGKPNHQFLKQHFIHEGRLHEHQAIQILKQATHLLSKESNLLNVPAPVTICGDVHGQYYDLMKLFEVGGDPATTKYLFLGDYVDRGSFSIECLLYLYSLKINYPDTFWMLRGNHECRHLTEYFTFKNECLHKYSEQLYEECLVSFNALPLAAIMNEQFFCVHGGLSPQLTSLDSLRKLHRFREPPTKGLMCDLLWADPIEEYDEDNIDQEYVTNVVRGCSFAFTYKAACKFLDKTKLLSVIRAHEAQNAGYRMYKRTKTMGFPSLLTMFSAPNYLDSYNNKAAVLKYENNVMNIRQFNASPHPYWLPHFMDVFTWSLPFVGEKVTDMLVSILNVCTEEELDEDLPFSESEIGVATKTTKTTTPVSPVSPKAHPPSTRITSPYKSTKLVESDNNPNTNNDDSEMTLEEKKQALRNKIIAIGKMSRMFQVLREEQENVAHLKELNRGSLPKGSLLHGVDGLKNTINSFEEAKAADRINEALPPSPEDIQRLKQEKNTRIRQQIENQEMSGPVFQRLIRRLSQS

BJ [15] = assay: BJ-TERT-LT-ST fibroblast viability loss – cell-based, RAS-independent, luminescence, dose response (AID 1935); type: functional; settings: Homo sapiens;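 note: BJ fibroblasts immortalized with TERT plus LT and ST oncogenes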
[16] = DRD fibroblast viability loss – cell-based, non-viral oncogenic, luminescence, dose response (AID 1934); type: functional; settings: Homo sapiens
Nonstructural protein 1 = Nonstructural protein 1 (Influenza A virus, UniProt Q194T2); type: functional, Influenza A virus (A/California/07/2009(H1N1))
Sequence of Nonstructural protein 1 (Q194T2 whole entry): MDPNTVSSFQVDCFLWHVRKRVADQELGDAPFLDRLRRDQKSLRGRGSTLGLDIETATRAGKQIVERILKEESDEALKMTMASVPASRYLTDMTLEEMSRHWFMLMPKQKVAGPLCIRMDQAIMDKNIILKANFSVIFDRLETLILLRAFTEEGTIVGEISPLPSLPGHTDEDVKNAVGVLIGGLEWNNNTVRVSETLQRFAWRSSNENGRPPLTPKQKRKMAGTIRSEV

[17] = molecular target: Heat shock protein HSP 90-alpha (Homo sapiens, UniProt P07900); type: functional, organism-based
BJ [18] = assay: growth inhibition of engineered Ras-driven BJ cells – cell-based, alamar blue fluorescence, cherrypicked samples, dose response (AID 2631); type: functional; settings: Homo sapiens;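 note: confirmatory dose-response assay in RAS-dependent BJ fibroblasts engineered with TERT, LT and ST, with cytotoxicity read by fluorescence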
[19] = molecular target: ATP-dependent molecular chaperone HSP82 (Candida albicans (strain WO-1) (Yeast), UniProt C4YTQ8); assay: steroid-induced GRE reporter decrease in yeast – S. cerevisiae, luminescence, Hsp90 inhibitor project, dose response (AID 2400); type: functional, cell-based;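 note: beta-galactosidase luminescence from glucocorticoid response element reporter as proxy for Hsp90 function; inhibitor potency where signal loss means Hsp90 inhibition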
Sequence of ATP-dependent molecular chaperone HSP82 (C4YTQ8 whole entry): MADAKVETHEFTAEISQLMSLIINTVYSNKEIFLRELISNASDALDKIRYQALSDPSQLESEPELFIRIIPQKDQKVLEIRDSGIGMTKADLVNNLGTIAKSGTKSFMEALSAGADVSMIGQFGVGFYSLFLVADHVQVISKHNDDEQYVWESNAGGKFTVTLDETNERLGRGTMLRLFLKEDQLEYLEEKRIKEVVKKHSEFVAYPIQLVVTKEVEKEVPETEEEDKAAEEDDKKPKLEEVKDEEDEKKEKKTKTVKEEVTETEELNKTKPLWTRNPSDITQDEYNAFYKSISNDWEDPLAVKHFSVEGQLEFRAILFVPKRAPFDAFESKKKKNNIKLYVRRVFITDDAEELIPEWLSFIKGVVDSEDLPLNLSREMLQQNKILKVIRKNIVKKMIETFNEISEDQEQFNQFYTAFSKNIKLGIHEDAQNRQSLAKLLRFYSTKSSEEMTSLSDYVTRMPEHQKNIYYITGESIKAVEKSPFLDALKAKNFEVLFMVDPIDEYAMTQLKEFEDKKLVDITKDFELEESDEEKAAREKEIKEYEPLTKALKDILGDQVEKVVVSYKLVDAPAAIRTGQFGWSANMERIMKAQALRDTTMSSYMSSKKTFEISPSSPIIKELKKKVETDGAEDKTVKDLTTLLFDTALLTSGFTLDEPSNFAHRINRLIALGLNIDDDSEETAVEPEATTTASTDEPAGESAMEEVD

[20] = molecular target: Luciferin 4-monooxygenase (Photinus pyralis, UniProt P08659); assay: inhibition of purified Photinus pyralis luciferase – biochemical, luminescence, dose response (AID 1891)
Sequence of Luciferin 4-monooxygenase (P08659 whole entry): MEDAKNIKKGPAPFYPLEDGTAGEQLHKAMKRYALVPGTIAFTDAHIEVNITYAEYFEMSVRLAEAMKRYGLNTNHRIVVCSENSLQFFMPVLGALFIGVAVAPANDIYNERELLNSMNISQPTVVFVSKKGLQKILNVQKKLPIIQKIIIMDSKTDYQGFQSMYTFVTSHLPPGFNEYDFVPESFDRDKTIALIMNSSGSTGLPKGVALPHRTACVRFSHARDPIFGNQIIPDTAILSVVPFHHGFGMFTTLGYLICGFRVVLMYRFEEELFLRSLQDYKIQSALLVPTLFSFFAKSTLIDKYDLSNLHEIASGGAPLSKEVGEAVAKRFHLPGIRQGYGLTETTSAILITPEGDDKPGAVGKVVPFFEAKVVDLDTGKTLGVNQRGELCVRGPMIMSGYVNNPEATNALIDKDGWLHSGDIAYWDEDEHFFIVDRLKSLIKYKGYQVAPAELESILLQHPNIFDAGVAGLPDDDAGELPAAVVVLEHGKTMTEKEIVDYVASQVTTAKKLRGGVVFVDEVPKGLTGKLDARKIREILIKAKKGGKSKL

[21] = Luminescence Cell-Based Dose Confirmation HTS to Identify Inhibitors of Platelet Dense Granule Release. [Related pubchem assays: 1663 (Primary HTS), 1678 (Summary of Project)]; type: functional
Cytochrome P450 1A2 = molecular target: T5, Cytochrome P450 1A2 (Homo sapiens, UniProt P05177);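 note: PubChem cytochrome P450 panel assay, CYP1A2 panel member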
T5 sequence (P05177 whole entry): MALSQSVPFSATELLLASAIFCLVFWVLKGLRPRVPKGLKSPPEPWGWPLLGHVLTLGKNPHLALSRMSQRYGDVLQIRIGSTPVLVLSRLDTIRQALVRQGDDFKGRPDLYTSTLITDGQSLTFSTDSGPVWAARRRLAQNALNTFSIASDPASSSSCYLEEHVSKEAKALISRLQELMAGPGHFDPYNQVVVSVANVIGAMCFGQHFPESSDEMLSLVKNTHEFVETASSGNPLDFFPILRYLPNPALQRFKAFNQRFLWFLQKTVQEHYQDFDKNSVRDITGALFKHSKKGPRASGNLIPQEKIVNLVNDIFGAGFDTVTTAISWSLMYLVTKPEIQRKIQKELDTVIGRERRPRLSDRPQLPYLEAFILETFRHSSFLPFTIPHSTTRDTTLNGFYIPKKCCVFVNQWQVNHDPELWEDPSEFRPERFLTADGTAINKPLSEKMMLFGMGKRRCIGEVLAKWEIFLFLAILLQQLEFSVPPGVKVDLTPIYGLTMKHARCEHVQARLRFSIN

Sequence of Cytochrome P450 2C19 (P33261 whole entry): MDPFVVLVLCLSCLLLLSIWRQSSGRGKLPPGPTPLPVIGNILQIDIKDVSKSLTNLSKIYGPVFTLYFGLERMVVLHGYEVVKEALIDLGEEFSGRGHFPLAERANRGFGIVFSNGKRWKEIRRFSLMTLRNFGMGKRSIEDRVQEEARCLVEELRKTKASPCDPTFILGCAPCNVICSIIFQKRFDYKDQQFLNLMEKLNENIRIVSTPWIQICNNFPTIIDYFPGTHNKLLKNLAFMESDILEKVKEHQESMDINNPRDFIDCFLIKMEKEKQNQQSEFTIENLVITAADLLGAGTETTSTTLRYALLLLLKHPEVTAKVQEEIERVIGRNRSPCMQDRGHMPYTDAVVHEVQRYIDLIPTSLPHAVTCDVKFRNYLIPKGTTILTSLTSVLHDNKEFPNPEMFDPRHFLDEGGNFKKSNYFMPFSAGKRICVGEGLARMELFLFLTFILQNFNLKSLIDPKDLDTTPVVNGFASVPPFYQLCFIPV

Structure (SMILES): CC(=O)Nc1ccccc1C(=O)C(=O)O
- AC50 (Cytochrome P450 2C19; read-out: AC50): 10 µM (inconclusive)
- AC50 (Cytochrome P450 2D6): inconclusive

Structure (SMILES): CNS(=O)(=O)c1cccc(C(=O)OCc2cc(=O)oc3c(C)c(O)ccc23)c1
- EC50 [1]: > 50 µM (active)

Structure (SMILES): Cc1cccc(OCCn2c(S(=O)(=O)O)nc3ccccc32)c1
- AC50 (Cytochrome P450 2D6): inconclusive

Structure (SMILES): C=CCn1c(C)cc(C2=NN=C(NC(C)(C)C)SC2)c1C
- AC50 [2]: 4.09 µM (active)

Structure (SMILES): CCNc1nc(C)c2cc(Br)c(=O)n(CC)c2n1
- EC50 [3]: 15.9 µM (active)
- EC50 [4]: 7.96 µM (active)
- EC50 [5]: 11.5 µM (active)
- IC50 [6]: > 80 µM (inactive)

Structure (SMILES): CCOC(=O)C(/C=N/c1cc(C)ccc1C)=C(\O)OCC
- IC50 [6]: > 80 µM (inactive)

Structure (SMILES): O=S(=O)(c1cnc(Cl)c(Cl)c1)N1CCCc2ccccc21
- IC50 [6]: > 80 µM (inactive)

Structure (SMILES): CCOC(=O)c1sc(N)c(C(=O)Nc2ccccc2OC)c1C
- IC50 [7]: 68.9 µM (active)

Structure (SMILES): O=[N+]([O-])c1ccc(N(c2ccccc2)c2ccccc2)cc1
- IC50 (Ephrin type-A receptor 4): 10.8 µM (active)
- IC50 (CHO): > 49.7 µM (inactive)
- EC50 [8]: 24.3 µM (active)

Structure (SMILES): O=C(NC1=NC(=O)C(F)(C(F)(F)F)S1)NC1CCCCC1 (configuration not stated)
- IC50 [9]: > 50 µM (not active)
- IC50 [7]: 32.7 µM (active)

Structure (SMILES): NC1(C(=O)O)CCCCC1
- AC50 (Cytochrome P450 2C19): inconclusive
- AC50 (Cytochrome P450 2D6): inconclusive

Structure (SMILES): O=Cc1ccc(O)c2ncccc12
- EC50 [10]: 16.1 µM (active)
- EC50 (BJ [11]): 4.43 µM (active)
- EC50 (BJ [12]): 33.7 µM (active)
- EC50 [13]: 0.333 µM (active)
- EC50 [14]: 3.93 µM (active)
- EC50 (BJ [15]): 21.1 µM (inconclusive)
- EC50 [16]: 16.6 µM (active)
- IC50 (Nonstructural protein 1): 1.71 µM (active)
- AC50 [17]: 0.552 µM (active)
- EC50 (BJ [18]): 0.284 µM (active)
- EC50 [19]: 11.2 µM (active)

Structure (SMILES): CCCOc1ccc(C2=CSC3=NCCN23)cc1Cl
- EC50 [1]: > 50 µM (active)

Structure (SMILES): Cc1cc(C)nc(SCC(=O)NCc2ccco2)n1
- EC50 [1]: > 50 µM (active)

Structure (SMILES): COC(=O)[C@@]12OC[C@]34[C@H]([C@@H](O)[C@@H]1O)[C@@]1(C)C(=O)C(O[C@@H]5OC(CO)[C@@H](O)[C@@H](O)[C@@H]5O)=C[C@@H](C)[C@@H]1C[C@H]3OC(=O)[C@H](OC(=O)/C=C(\C)C(C)(C)OC(C)=O)[C@@H]24 (some centres not stated)
- IC50 [6]: > 80 µM (inactive)

Structure (SMILES): COc1ccc(C(N)=O)cc1NC(=O)c1cccc(F)c1
- EC50 [20]: > 112 µM (not active)
- EC50 [21]: > 112 µM (not active)
- AC50 (Cytochrome P450 1A2): 5.01 µM (inconclusive)
- AC50 (Cytochrome P450 2D6): inconclusive
